Data taken from patent publication US7977375B2, “Antibiotic and method of production thereof” (Helmholtz-Zentrum Für Infektionsforschung GmbH, priority 2004, dated 2011).
Converted amounts (≈) assume the structure as drawn.

Experiments:
B. cepacia SCV 141 = test: agar diffusion method, inhibition zone; format: cell-based, Burkholderia cepacia; details: 18 hours at 37° C., per disk 10 μl crude extract, 50 μg macrolactin, 78 μg erythromycin, 10 μg ampicillin
Procedure: (§1) The agar diffusion method employing Mueller-Hinton (MH) agar (Difco Laboratories) was used to determine effectiveness against bacteria and yeasts. Sterile paper disks (Schleicher & Schüell, Germany) were seeded with 10 μl crude extract or with a solution of purified macrolactin (final compound concentration on the disk 50 μg) and then placed on the surface of MH-agar plates that had been seeded beforehand with a suspension of overnight culture of the test microorganisms at a concentration of 10^5 cells/ml.
The B. cepacia strain used, which is a clinical isolate from a cystic fibrosis patient, forms small colonies (SCV 141).

[1] = tested on: Candida albicans DSM 11225; test: MIC / MBC in liquid culture; format: cell-based; details: DSM11225, read-out: MIC (minimal inhibitory concentration)
S. aureus MRSA 3 = test: electron microscopy of cell division (FIG. 2); format: cell-based, Staphylococcus aureus; details: 16 μg/ml, 4 hours shake culture
Procedure: FIGS. 2 a), b) and c) are electron microscope photographs of S. aureus MRSA 3 after 4 hours growth without antibiotic and d), e) and f) in the presence of 16 μg/ml 7-O-malonyl macrolactin A;
It is thought that 7-O-malonyl macrolactin A inhibits the division of bacterial cells, which interrupts the proliferation thereof.
7-O-malonyl macrolactin A influences cell division in MRSA 3, which is evident from the altered division planes. […] The large black arrowheads (FIGS. 2e) and f)) indicate the division planes, while the small black arrowheads indicate an asymmetrical initiation of cell division.

Candida krusei DSM 6128 = test: MIC / MBC in liquid culture; format: cell-based; details: Pichia kudriavzevii
[2] = tested on: S. aureus # (non-methicillin-resistant reference strain); test: MIC / MBC in liquid culture; format: cell-based, Staphylococcus aureus; details: S. aureus #
[3] = tested on: MRSA 3 (methicillin-resistant S. aureus, clinical isolate); test: agar diffusion method, inhibition zone; format: cell-based, Staphylococcus aureus; details: Staphylococcus aureus; MRSA 3; MH agar, 18 hours at 37° C.; per disk 10 μl crude extract, 50 μg macrolactin, 78 μg erythromycin, 30 μg vancomycin, 10 μg ampicillin
Procedure: as §1

[4] = tested on: MRSA 2 (methicillin-resistant S. aureus, clinical isolate); test: agar diffusion method, inhibition zone; format: cell-based, Staphylococcus aureus; details: Staphylococcus aureus; MRSA 2; MH agar, 18 hours at 37° C.; per disk 10 μl crude extract, 50 μg macrolactin, 78 μg erythromycin, 30 μg vancomycin, 10 μg ampicillin
Procedure: as §1

S. aureus DSMZ 1104 = test: agar diffusion method, inhibition zone; format: cell-based, Staphylococcus aureus; details: Staphylococcus aureus, DSMZ1104; S. aureus DSMZ 1104; MH agar, 18 hours at 37° C.; per disk 10 μl crude extract, 50 μg macrolactin, 78 μg erythromycin, 30 μg vancomycin, 10 μg ampicillin
Procedure: as §1

[5] = tested on: S. aureus # (own collection, methicillin-sensitive control strain); test: agar diffusion method, inhibition zone; format: cell-based, Staphylococcus aureus; details: Staphylococcus aureus; S. aureus # own collection; MH agar, 18 hours at 37° C.; per disk 10 μl crude extract, 50 μg macrolactin, 78 μg erythromycin, 30 μg vancomycin, 10 μg ampicillin
Procedure: as §1

[6] = tested on: Burkholderia cepacia SCV 141; test: kinetics of growth (FIG. 1F); format: cell-based; details: B. cepacia SCV 141; 32 μg/ml
Source text: (§2) • FIG. 1A y-axis: Log CFU (Colony Forming Units) Cells/ml • x-axis: Time (HRS) • FIG. 1B y-axis: Log CFU (Colony Forming Units) Cells/ml • x-axis: Time (HRS) • FIG. 1C: y-axis: Log CFU (Colony Forming Units) Cells/ml • x-axis: Time (HRS) • FIG. 1D: y-axis: Log CFU (Colony Forming Units) Cells/ml • x-axis: Time (HRS) • FIG. 1E: y-axis: Log CFU (Colony Forming Units) Cells/ml • x-axis: Time (HRS) • FIG. 1F: y-axis: Log CFU (Colony Forming Units) Cells/ml • x-axis: Time (HRS) • FIG. 5A: y-axis: % Inhibition • x-axis Concentration μg/ml • FIG. 5B: y-axis: % Inhibition • x-axis Concentration μg/ml

[7] = tested on: Staphylococcus aureus (#); test: kinetics of growth at sub-MIC concentrations (FIG. 1A); format: cell-based; details: S. aureus #, 1 or 4 μg/ml
Procedure: (§3) Investigation of the bacteriostatic activity of 7-O-malonyl macrolactin A required testing the effects of sub-MIC concentrations. […] 24 hours after treatment, the titre of viable cells was reduced by a factor of 100 as compared to the control without 7-O-malonyl macrolactin A.
as §2

E. faecalis VRAS E305 [8] = test: MIC / MBC in liquid culture; format: cell-based, Enterococcus faecalis; details: E. faecalis VRAS E305
[9] = tested on: Candida parapsilosis DSM5784; test: MIC / MBC in liquid culture; format: cell-based; details: Lodderomyces parapsilosis, read-out: MIC (minimal inhibitory concentration)
E. faecalis VRAS E305 [10] = test: agar diffusion method, inhibition zone; format: cell-based, Enterococcus faecalis; details: E. faecalis VRAS E305, MH agar, 18 hours at 37° C., per disk 10 μl crude extract, 50 μg macrolactin, 78 μg erythromycin, 30 μg vancomycin, 10 μg ampicillin
Procedure: as §1

E. faecalis ATCC 29212 = test: agar diffusion method, inhibition zone; format: cell-based, Enterococcus faecalis; details: Enterococcus faecalis, ATCC29212; E. faecalis ATCC 29212; MH agar, 18 hours at 37° C.; per disk 10 μl crude extract, 50 μg macrolactin, 78 μg erythromycin, 30 μg vancomycin, 10 μg ampicillin
Procedure: as §1

[11] = tested on: Staphylococcus aureus MRSA 3; test: kinetics of growth at sub-MIC concentrations (FIG. 1B); format: cell-based; details: 1 or 4 μg/ml
Procedure: as §3, §2

MRSA 2 = test: MIC / MBC in liquid culture; format: cell-based, Staphylococcus aureus; details: MRSA 2
[12] = Staphylococcus aureus, pronounced inhibition of growth, read-out: MBC (minimal bacteriostatic or fungistatic concentration)
[13] = Staphylococcus aureus, read-out: MIC (minimal inhibitory concentration)

## CC1CCC/C=C/C=C/C(O)CC(O)C/C=C\C=C\C(OC(=O)CC(=O)O)C/C=C/C=C\C(=O)O1 (stereo not shown) [7-O-malonyl macrolactin A]
B. cepacia SCV 141; Burkholderia cepacia, SCV141, MH agar
  zone of inhibition at 50 µg/disc: 15 mm
B. cepacia SCV 141; MH agar
  Inhibition zone: produced an inhibition zone
[1]
  MIC: > 128 µg/mL
S. aureus MRSA 3
  effect on cell division, electron microscope: disrupted cell division
Candida krusei DSM 6128; DSM6128, read-out: MBC (minimal bacteriostatic or fungistatic concentration)
  MBC: 32 µg/mL (≈ 65.5 µM)
Candida krusei DSM 6128; DSM6128, read-out: MIC (minimal inhibitory concentration)
  MIC: > 128 µg/mL
[2]
  MIC (minimal inhibitory concentration): >128 µg/mL
[2]; [12]
  MBC: 1 µg/mL (≈ 2.05 µM)
[2]; [13]
  MIC: > 128 µg/mL
[3]
  zone of inhibition at 50 µg/disc: 41 mm
[4]
  zone of inhibition at 50 µg/disc: 40 mm
S. aureus DSMZ 1104
  zone of inhibition at 50 µg/disc: 26 mm
[5]
  zone of inhibition at 50 µg/disc: 30 mm
[6]
  growth inhibited by a factor: ≤ 10
[7]; far below the MIC, first 4 hours
  effect on kinetics of growth: kills off this bacterium within the first 4 hours following dosage
[7]; subsequent cultivation time
  growth reduced by a factor: 10
E. faecalis VRAS E305 [8]
  MIC (minimal inhibitory concentration): >128 µg/mL
E. faecalis VRAS E305 [8]; Enterococcus faecalis, VRASE305, read-out: MBC (minimal bacteriostatic or fungistatic concentration)
  MBC: 0.06 µg/mL (≈ 0.123 µM)
E. faecalis VRAS E305 [8]; Enterococcus faecalis, VRASE305, read-out: MIC (minimal inhibitory concentration)
  MIC: > 128 µg/mL
[9]
  MIC: 128 µg/mL (≈ 262 µM)
E. faecalis VRAS E305 [10]
  Inhibition zone: produced an inhibition zone
E. faecalis VRAS E305 [10]; Enterococcus faecalis, VRASE305
  zone of inhibition at 50 µg/disc: 15 mm
E. faecalis ATCC 29212
  zone of inhibition at 50 µg/disc: 25 mm
[11]; 24 hours after treatment
  titre of viable cells reduced by a factor, compared to control: 100
[11]; after 4 hours
  effect on kinetics of growth: almost completely inhibited
MRSA 2
  MIC (minimal inhibitory concentration): >128 µg/mL
MRSA 2; [12]
  MBC: 4 µg/mL (≈ 8.19 µM)
MRSA 2; [13]
  MIC: > 128 µg/mL
